Measured values as given in the NIST ThermoML archive (doi:10.1016/j.fluid.2013.09.036).

Columns and labels:
[1] = 101.33 kPa, Liquid; for mass density: Vibrating tube method
[2] = xn = mol fraction of the nth substance listed; details: Liquid, Other PVT measurement

CCC[N+]1(C)CCCC1.O=S(=O)([N-]S(=O)(=O)C(F)(F)F)C(F)(F)F
[1]
Details | electrical conductivity [S/m] | mass density [kg/m3] | viscosity [mPa·s]
278.15 K | 0.158 | 1446.23 | 169.4
283.15 K | 0.206 | 1441.6 | 127.2
288.15 K | 0.262 | 1437 | 97.84
293.15 K | 0.327 | 1432.46 | 76.89
298.15 K | 0.4 | 1427.91 | 61.52
303.15 K | 0.483 | 1423.37 | 49.99
313.15 K | 0.675 | 1414.36 | 34.45
323.15 K | 0.902 | 1405.44 | 24.91
333.15 K | 1.16 | 1396.6 | 18.71
343.15 K | 1.46 | 1387.82 | 14.51
353.15 K | 1.78 | 1379.12 | 11.55
363.15 K | – | 1370.48 | 9.398

CCC[N+]1(C)CCCC1.O=S(=O)([N-]S(=O)(=O)C(F)(F)F)C(F)(F)F + O=C=O
[2]
Details | molar volume [m3/mol]
298.15 K, 525.5 kPa, x2 = 0.134 | 0.0002522
298.15 K, 1123.1 kPa, x2 = 0.255 | 0.0002222
298.15 K, 1476.5 kPa, x2 = 0.316 | 0.0002071
298.15 K, 1913.1 kPa, x2 = 0.376 | 0.0001924
298.15 K, 2237.6 kPa, x2 = 0.418 | 0.000182
298.15 K, 2800.7 kPa, x2 = 0.478 | 0.0001674
298.15 K, 3281.6 kPa, x2 = 0.523 | 0.0001565
298.15 K, 3998.7 kPa, x2 = 0.578 | 0.0001431
298.15 K, 4567.3 kPa, x2 = 0.616 | 0.0001339
313.15 K, 567.7 kPa, x2 = 0.113 | 0.0002606
313.15 K, 1217.5 kPa, x2 = 0.218 | 0.0002344
313.15 K, 1606.5 kPa, x2 = 0.273 | 0.0002203
313.15 K, 2083.3 kPa, x2 = 0.327 | 0.000207
313.15 K, 2445 kPa, x2 = 0.369 | 0.0001966
313.15 K, 3072.7 kPa, x2 = 0.425 | 0.0001827
313.15 K, 3613.6 kPa, x2 = 0.468 | 0.0001718
313.15 K, 4415.1 kPa, x2 = 0.519 | 0.0001596
313.15 K, 5100.5 kPa, x2 = 0.561 | 0.000149
333.15 K, 618.4 kPa, x2 = 0.093 | 0.0002678
333.15 K, 1333.3 kPa, x2 = 0.18 | 0.0002455
333.15 K, 1767.4 kPa, x2 = 0.229 | 0.0002327
333.15 K, 2294.9 kPa, x2 = 0.275 | 0.0002214
333.15 K, 2702.9 kPa, x2 = 0.316 | 0.0002107
333.15 K, 3411.9 kPa, x2 = 0.368 | 0.0001978
333.15 K, 4029.9 kPa, x2 = 0.409 | 0.0001874
333.15 K, 4942.5 kPa, x2 = 0.455 | 0.0001767
333.15 K, 5777.2 kPa, x2 = 0.501 | 0.000165
